What was measured:
Type in all cases: in vivo
[1] = test system: Striga hermonthica; experiment: Parasitic plant germination induction test (Striga hermonthica seeds); settings: in the dark for 2 days; for Germination rate 0.1 nM: compound concentration 0.1 nM; for Germination rate 1 nM: compound concentration 1 nM; for Germination rate 10 nM: compound concentration 10 nM
Method: (§1) A parasitic plant germination induction test was conducted using the compounds synthesized in Example 1 as test compounds. The seeds of a parasitic plant (Striga hermonthica, Orobanche minor, or Phelipanche aegyptiaca) were suspended in sterilized ultrapure water, and this was dispensed in an amount of 100 µL each (containing about 20 seeds) into a 96-well plate. The test compounds or control compounds (Comparison Compound 1 or synthetic Strigolactone (GR^24: Comparison Compound 2)) dissolved in DMSO were individually added thereto to a final concentration of these compounds of 10 nM to 1 fM (1 × 10^-8 to 1 × 10^-15 M), and allowed to stand in the dark for 2 days. The presence or absence of germination was observed using a microscope, and the germination rate (i.e., number of germinated seeds/total number of seeds) was measured. The higher the germination rate in the parasitic plant germination induction test, or the higher the germination rate at lower concentration, the higher the Striga germination inducing activity.
(§2) In Tables 1 to 6, the concentrations (10 nM, 1 nM, and 0.1 nM) represent compound concentrations. In Tables 1-6, the evaluation criteria for the compounds are as follows: • ++: germination rate of 20% or more • +: germination rate of 5% or more and less than 20% • -: germination rate of less than 5% Table 1

[2] = test system: Orobanche minor; experiment: Parasitic plant germination induction test (Orobanche minor seeds); settings: in the dark for 2 days
Method: as §1, §2

[3] = test system: Phelipanche aegyptiaca; experiment: Parasitic plant germination induction test (Phelipanche aegyptiaca seeds); settings: in the dark for 2 days
Method: as §1, §2

| Molecule | Germination rate 0.1 nM [1] | Germination rate 1 nM [1] | Germination rate 10 nM [1] | Germination rate 0.1 nM ([2]; compound concentration 0.1 nM) | Germination rate 1 nM ([2]; compound concentration 1 nM) | Germination rate 10 nM ([2]; compound concentration 10 nM) | Germination rate 1 nM ([3]; compound concentration 1 nM) | Germination rate 10 nM ([3]; compound concentration 10 nM) |
| --- | --- | --- | --- | --- | --- | --- | --- | --- |
| CCCCCOc1ccc(S(=O)(=O)N2CCN(C(=O)OC3C=C(C)C(=O)O3)CC2)cc1 (stereo not shown) [Compound 5] | ++ (germination rate of 20% or more) | ++ (germination rate of 20% or more) | ++ (germination rate of 20% or more) |  |  |  |  |  |
| CCc1ccc(S(=O)(=O)N2CCN(C(=O)OC3C=C(C)C(=O)O3)CC2)cc1 (stereo not shown) [Compound 6] | ++ (germination rate of 20% or more) | ++ (germination rate of 20% or more) | ++ (germination rate of 20% or more) |  |  |  |  |  |
| CC1=CC(OC(=O)N2CCN(S(=O)(=O)c3ccc(C(F)(F)F)cc3)CC2)OC1=O (stereo not shown) [Compound 8] | ++ (germination rate of 20% or more) | ++ (germination rate of 20% or more) | ++ (germination rate of 20% or more) |  |  |  |  |  |
| O=C1C=CC(OC(=O)N2CCN(S(=O)(=O)c3ccc(C(F)(F)F)cc3)CC2)O1 (stereo not shown) [Compound 18] | - (germination rate of less than 5%) | + (germination rate of 5% or more and less than 20%) | ++ (germination rate of 20% or more) |  |  |  |  |  |
| CCCCCOc1ccc(S(=O)(=O)N2CCN(C(=O)OC3C=CC(=O)O3)CC2)cc1 (stereo not shown) [Compound 14] | - (germination rate of less than 5%) | ++ (germination rate of 20% or more) | ++ (germination rate of 20% or more) |  |  |  |  |  |
| CCCCCc1ccc(S(=O)(=O)N2CCN(C(=O)OC3C=CC(=O)O3)CC2)cc1 (stereo not shown) [Compound 17] | + (germination rate of 5% or more and less than 20%) | + (germination rate of 5% or more and less than 20%) | ++ (germination rate of 20% or more) |  |  |  |  |  |
| GR^24 [Comparison Compound 2, reference compound] | - (germination rate of less than 5%) | ++ (germination rate of 20% or more) | ++ (germination rate of 20% or more) | - (germination rate of less than 5%) | + (germination rate of 5% or more and less than 20%) | ++ (germination rate of 20% or more) | - (germination rate of less than 5%) | ++ (germination rate of 20% or more) |
| CCOc1ccc(S(=O)(=O)N2CCN(C(=O)OC3C=CC(=O)O3)CC2)cc1 (stereo not shown) [Compound 11] | + (germination rate of 5% or more and less than 20%) | ++ (germination rate of 20% or more) | ++ (germination rate of 20% or more) |  |  |  |  |  |
| COc1ccc(S(=O)(=O)N2CCN(C(=O)OC3C=CC(=O)O3)CC2)cc1 (stereo not shown) [Compound 10] | - (germination rate of less than 5%) | ++ (germination rate of 20% or more) | ++ (germination rate of 20% or more) |  |  |  |  |  |
| CCCCCc1ccc(S(=O)(=O)N2CCN(C(=O)OC3C=C(C)C(=O)O3)CC2)cc1 (stereo not shown) [Compound 7] | ++ (germination rate of 20% or more) | ++ (germination rate of 20% or more) | ++ (germination rate of 20% or more) |  |  |  |  |  |
| Cc1ccc(S(=O)(=O)N2CCN(C(=O)OC3C=CC(=O)O3)CC2)cc1 (stereo not shown) [Compound 15] | - (germination rate of less than 5%) | + (germination rate of 5% or more and less than 20%) | ++ (germination rate of 20% or more) |  |  |  |  |  |
| O=C1C=CC(OC(=O)N2CCN(S(=O)(=O)c3cccc(Br)c3)CC2)O1 (stereo not shown) [Compound 19] | - (germination rate of less than 5%) | ++ (germination rate of 20% or more) | ++ (germination rate of 20% or more) |  |  |  |  |  |
| CC(C)(C)c1ccccc1OCC1CN(C(=O)OC2C=CC(=O)O2)CCO1 (stereo not shown) [Reference Compound 30] | - (germination rate of less than 5%) | ++ (germination rate of 20% or more) | ++ (germination rate of 20% or more) |  |  |  |  |  |
| O=C1C=CC(OC(=O)N2CCN(S(=O)(=O)c3ccc([N+](=O)[O-])cc3)CC2)O1 (stereo not shown) [Compound 20] | - (germination rate of less than 5%) | ++ (germination rate of 20% or more) | ++ (germination rate of 20% or more) |  |  |  |  |  |
| COc1ccc(S(=O)(=O)N2CCN(C(=O)OC3C=C(C)C(=O)O3)CC2)cc1 (stereo not shown) [Compound 2] | ++ (germination rate of 20% or more) | ++ (germination rate of 20% or more) | ++ (germination rate of 20% or more) |  |  |  |  |  |
| CC1=CC(OC(=O)N2CCN(S(=O)(=O)c3cccc(Br)c3)CC2)OC1=O (stereo not shown) [Compound 9] | ++ (germination rate of 20% or more) | ++ (germination rate of 20% or more) | ++ (germination rate of 20% or more) |  |  |  |  |  |
| CCCOc1ccc(S(=O)(=O)N2CCN(C(=O)OC3C=CC(=O)O3)CC2)cc1 (stereo not shown) [Compound 12] | + (germination rate of 5% or more and less than 20%) | ++ (germination rate of 20% or more) | ++ (germination rate of 20% or more) |  |  |  |  |  |
| CCc1ccc(S(=O)(=O)N2CCN(C(=O)OC3C=CC(=O)O3)CC2)cc1 (stereo not shown) [Compound 16] |  | ++ (germination rate of 20% or more) | ++ (germination rate of 20% or more) |  |  |  |  |  |

Source: patent EP3693362B1, “PARASITIC PLANT GERMINATION REGULATOR” (National University Corporation Tokai National Higher …, priority 2017, dated 2019)
